According to paper PMC3021692, “Synthesis and Pharmacological Evaluation of Novel Schiff Base Analogues of 3-(4-amino) Phenylimino) 5-fluoroindolin-2-one” (Journal of Young Pharmacists : JYP, 2010):
Entries after “also recorded” stand apart in the source; their conditions may differ.

Assays:
Type in all cases: in vivo
Wistar albino mice = assay: Analgesic activity, tail-flick technique; details: for Percent analgesic activity: mean ± SD (n = 6); for Analgesic activity (in words): tail-flick, structure-activity comparison within the series / vs diclofenac sodium
Description: (§1) The synthesized compounds were evaluated for analgesic, anti-inflammatory, and ulcerogenic index. […] The test compounds and the standard drugs were administered in the form of a suspension (1% carboxymethyl cellulose as a vehicle) by oral route for analgesic and anti-inflammatory but for ulcerogenicity studies by intraperitoneally as suspension in 10% v/v Tween-20. Each group consisted of six animals. The animals were procured from the C. L. Baid Metha College of pharmacy, Chennai, and were maintained in colony cages at 25 ±2°C, relative humidity of 45-55%, under a 12-h light and dark cycle; they were fed standard animal feed. All the animals were acclimatized for a week before use. The Institutional Animal Ethics Committee approved the protocol adopted for the experimentation of animals.
The analgesic activity was performed by tail-flick technique using Wistar albino mice (25-35 g) of either sex selected by the random sampling technique.[1314] Diclofenac sodium at a dose level of 10 mg/kg and 20 mg/kg was administered orally as reference drug for comparison. The test compounds at two dose levels (10, 20 mg/kg) were administered orally. The reaction time was recorded at 30 min, 1, 2, and 3 h after the treatment, and cut-off time was 10 s. The percent analgesic activity (PAA) was calculated by the following formula, where T1 is the reaction time (s) before treatment, and T2 is the reaction time (s) after treatment.

[1] = system: Albino rats of Wistar strain; assay: Evaluation of ulcerogenicity index (pylorus ligation); set-up: scale not given here; details: mean ± SD (n = 6)
Description: The synthesized compounds were evaluated for analgesic, anti-inflammatory, and ulcerogenic index. […] The test compounds and the standard drugs were administered in the form of a suspension (1% carboxymethyl cellulose as a vehicle) by oral route for analgesic and anti-inflammatory but for ulcerogenicity studies by intraperitoneally as suspension in 10% v/v Tween-20. Each group consisted of six animals. The animals were procured from the C. L. Baid Metha College of pharmacy, Chennai, and were maintained in colony cages at 25 ±2°C, relative humidity of 45-55%, under a 12-h light and dark cycle; they were fed standard animal feed. All the animals were acclimatized for a week before use. The Institutional Animal Ethics Committee approved the protocol adopted for the experimentation of animals. Ulceration in rats was induced as described by Goyal et al. Albino rats of Wistar strain weighing 150-200 g of either sex were divided into various groups each of six animals.[16] Control group of animals was administered only with 10% v/v Tween 80 suspension intraperitonially. One group was administered with aspirin (German Remedies) intraperitoneally at a dose of 200 mg/kg once daily for 3 days. The remaining group of animals was administered with test compounds intraperitoneally at a dose of 20 mg/kg. On fourth day, Pylorus was ligated as per the method of Shay et al.[17] Animals were fasted for 36 h before the pylorus ligation procedure. Four hours after the ligation, animals were sacrificed. The stomach was removed and opened along with the greater curvature. Ulcer index was determined by the method of Ganguly and Bhatnagar.[18]

[2] = system: carrageenan-induced paw edema in rats; assay: Anti-inflammatory activity, carrageenan-induced paw edema test; details: for Percent anti-inflammatory activity (percent inhibition of paw edema): mean ± SD (n = 6)
Description: as §1
Anti-inflammatory activity was evaluated by carrageenan-induced paw edema test in rats.[15] Diclofenac sodium 10, 20 mg/kg was administered as a standard drug for comparison. The test compounds were administered at two dose levels (10 mg/kg, 20 mg/kg). The paw volumes were measured using the mercury displacement technique with the help of a plethysmograph (Model PLYAN; Buxco, USA) immediately before and 30 min, 1, 2, and 3 h after carrageenan injection. The percent inhibition of paw edema was calculated using the following formula.
Percent inhibition I = 100 1− (a−x) / (b−y)
Where x is the mean paw volume of rats before the administration of carrageenan and test compounds or reference compound (test group), a is the mean paw volume of rats after the administration of carrageenan in the test group (drug treated), b is the mean paw volume of rats after the administration of carrageenan in the control group, y is the mean paw volume of rats before the administration of carrageenan in the control group.

[3] = 10 mg/kg oral, 30 min after treatment
[4] = 10 mg/kg oral, 1 h after treatment
[5] = 10 mg/kg oral, 2 h after treatment
[6] = 10 mg/kg oral, 3 h after treatment
[7] = 20 mg/kg oral, 30 min after treatment
[8] = 20 mg/kg oral, 1 h after treatment
[9] = 20 mg/kg oral, 2 h after treatment
[10] = 20 mg/kg oral, 3 h after treatment
[11] = test compounds 20 mg/kg intraperitoneally, pylorus ligated on fourth day
[12] = 10 mg/kg oral, 30 min after carrageenan
[13] = 10 mg/kg oral, 1 h after carrageenan
[14] = 10 mg/kg oral, 2 h after carrageenan
[15] = 10 mg/kg oral, 3 h after carrageenan
[16] = 20 mg/kg oral, 30 min after carrageenan
[17] = 20 mg/kg oral, 1 h after carrageenan
[18] = 20 mg/kg oral, 2 h after carrageenan
[19] = 20 mg/kg oral, 3 h after carrageenan

Row | SMILES | Percent analgesic activity (Wistar albino mice; [3]) | Percent analgesic activity (Wistar albino mice; [4]) | Percent analgesic activity (Wistar albino mice; [5]) | Percent analgesic activity (Wistar albino mice; [6]) | Percent analgesic activity (Wistar albino mice; [7]) | Percent analgesic activity (Wistar albino mice; [8]) | Percent analgesic activity (Wistar albino mice; [9]) | Percent analgesic activity (Wistar albino mice; [10]) | Ulcer index [1, 11] | Percent anti-inflammatory activity (percent inhibition of paw edema) [2, 12] | Percent anti-inflammatory activity (percent inhibition of paw edema) [2, 13] | Percent anti-inflammatory activity (percent inhibition of paw edema) [2, 14] | Percent anti-inflammatory activity (percent inhibition of paw edema) [2, 15] | Percent anti-inflammatory activity (percent inhibition of paw edema) [2, 16] | Percent anti-inflammatory activity (percent inhibition of paw edema) [2, 17] | Percent anti-inflammatory activity (percent inhibition of paw edema) [2, 18] | Percent anti-inflammatory activity (percent inhibition of paw edema) [2, 19] | Analgesic activity (in words) (Wistar albino mice) | Anti-inflammatory activity compared to reference standard diclofenac sodium (in words) ([2]; carrageenan-induced paw edema in rats) | Ulcer index ([1]; diclofenac reference, dose not given)
1 | CCC(C)=Nc1ccc(N=C2C(=O)Nc3ccc(F)cc32)cc1 [Compound N1] | 47 ± 1.25 % | 51 ± 1.32 % | 53 ± 1.15 % | 31 ± 1.96 % | 54 ± 1.36 % | 58 ± 1.96 % | 60 ± 1.16 % | 47 ± 1.45 % | 0.84 ± 1.43 | 39 ± 1.25 % | 45 ± 1.32 % | 52 ± 1.15 % | 32 ± 1.96 % | 44 ± 1.36 % | 52 ± 1.96 % | 58 ± 1.32 % | 37 ± 1.45 % | – | – | –
2 | COc1ccc(C=Nc2ccc(N=C3C(=O)Nc4ccc(F)cc43)cc2)cc1 [Compound N7] | 34 ± 1.74 % | 43 ± 1.72 % | 45 ± 1.45 % | 29 ± 1.69 % | 47 ± 1.96 % | 52 ± 1.67 % | 56 ± 1.36 % | 44 ± 1.48 % | 0.78 ± 1.19 | 36 ± 1.74 % | 42 ± 1.72 % | 45 ± 1.55 % | 33 ± 1.69 % | 44 ± 1.76 % | 55 ± 1.78 % | 58 ± 1.66 % | 41 ± 1.48 % | decreasing activity; also recorded: further decrease of activity | – | –
3 | CCCC(C)=Nc1ccc(N=C2C(=O)Nc3ccc(F)cc32)cc1 [Compound N3] | 55 ± 1.75 % | 62 ± 1.82 % | 64 ± 1.35 % | 46 ± 1.96 % | 62 ± 1.59 % | 66 ± 1.77 % | 69 ± 1.24 % | 52 ± 1.45 % | 0.85 ± 1.28 | 49 ± 1.75 % | 54 ± 1.82 % | 60 ± 1.35 % | 43 ± 1.96 % | 54 ± 1.59 % | 62 ± 1.77 % | 66 ± 1.24 % | 52 ± 1.45 % | good activity | moderately more potent | –
4 | O=C1Nc2ccc(F)cc2C1=Nc1ccc(N=Cc2ccc(Cl)cc2)cc1 [Compound N9] | 42 ± 1.82 % | 44 ± 1.72 % | 48 ± 1.59 % | 38 ± 1.72 % | 46 ± 1.68 % | 51 ± 1.46 % | 57 ± 1.18 % | 45 ± 1.32 % | 0.75 ± 1.26 | 38 ± 1.82 % | 44 ± 1.32 % | 48 ± 1.99 % | 38 ± 1.72 % | 46 ± 1.68 % | 51 ± 1.46 % | 57 ± 1.18 % | 45 ± 1.32 % | decreasing activity | – | –
5 | O=C(O)Cc1ccccc1Nc1c(Cl)cccc1Cl [Diclofenac, Diclofenac sodium, reference compound] | 37 ± 1.69 % | 43 ± 1.42 % | 45 ± 0.92 % | 33 ± 0.96 % | 46 ± 0.95 % | 55 ± 1.16 % | 62 ± 1.49 % | 39 ± 1.13 % | – | 32 ± 0.69 % | 38 ± 1.42 % | 39 ± 1.97 % | 33 ± 0.93 % | 45 ± 1.65 % | 52 ± 0.96 % | 60 ± 1.52 % | 39 ± 1.13 % | – | – | 1.65 ± 0.48
